2 substances from patent US20200032163A1, “Method for the Virus Inactivation of a Preparation of Monoclonal Antibodies” (Laboratoire Francais du Fractionnement et des …, priority 2016, published 2020) can be followed below.

Data set [1] in a line: Adsorption of polysorbate 80 and TnBP by the multilayer film of the 75 mL flexible bag (HPLC).
Data set [2] is described as follows: Adsorption of Triton X-100 by the multilayer film of the 75 mL flexible bag (HPLC). Format: physicochemical. The conditions noted are these: 120 minutes. The protocol:
In parallel, a negative control was carried out, repeating the experiment in a 0.5 litre glass flask filled with 316 mL of a 1% Triton X-100® solution. […] Samples were taken after 0 and 120 minutes.

The nature of data set [3]: Distribution of the concentration of Triton X-100 in a 50 L bag (RP-HPLC). In kind it is physicochemical. The conditions noted are these: 1% Triton X-100 in purified water.
[4] abbreviates: Bag according to the invention, 30 min, 25±3° C.
The mark [5] stands for this setting: Bag according to the invention, 1 hour, 25±3° C.
Setting [6] is: Bag according to the invention, 2 hours, 25±3° C.

Turning to “polyethylene glycol monooleate [Polysorbate 80]”, the “adsorption by the bag” value in data set [1] (75 mL flexible bag, 2 hours, 25±3° C.) is “no significant adsorption”. Also, the “Polysorbate 80 Concentration” value in data set [1] (Bag according to the invention, 0 min, 25±3° C.) turned out to be 11147 mg/L; in data set [1] (setting [4]), 11408 mg/L; in data set [1] (setting [5]) it was 11519 mg/L; in data set [1] (setting [6]) it was 11432 mg/L; in data set [1] (Glass flask (negative control), 30 min) it was 10374 mg/L. Further, the “Polysorbate 80 Adsorption with respect to T0” value in data set [1] (setting [4]) is −2.3%; in data set [1] (setting [5]) it was −3.3%; in data set [1] (setting [6]), −2.6%. Also, the “concentration after 2 hours of incubation” value in data set [1] (in the bag or in the glass flask) is reported as “stable”.
“polyethylene glycol tert-octylphenyl ether [Triton X-100®]”: the “reduction of the concentration of Triton X-100” value stood at 3.1% in data set [2] (0.5 litre glass flask (negative control), 1% solution, magnetic stirring) and 5% in data set [2] (75 mL flexible bag, 1% (w/w) solution, orbital stirring, 20±5° C.). The “adsorption of the Triton X-100 by the bag” value in data set [2] (75 mL flexible bag, 1% (w/w) solution) is reported as “no significant adsorption”. In addition, the “greatest difference observed between the lower and higher concentrations measured” value in data set [3] (0 to 120 minutes) is 7.90%. Moreover, the “difference in concentration of Triton X-100 between the upper part and the bottom of the bag” value in data set [3] (stirring 40 rpm) is 2.7%.
